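Five concentrations, 48 hours, 96-well plates. Here, GI50 denotes the concentration required for 50% inhibition of growth. The concentration for full growth arrest is given as TGI.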

Consider eleven compounds from PubChem BioAssay (NCI).

Among the test systems are ACHN renal; HT29 colon; MALME-3M melanoma; NCI-H226 lung; OVCAR-4 ovarian; RXF 393 renal; TK-10 renal; UACC-257 melanoma; UACC-62 melanoma; UO-31 renal; NCI/ADR-RES ovarian.
Common to all, as to experiment: growth of human tumour cells (NCI), 48 h

As to `CCC(C(=O)O)c1ccc(OC)cc1` (configuration not stated), the TGI in the experiment with ACHN renal, with HT29 colon, with MALME-3M melanoma, in the experiment with NCI-H226 lung, in the experiment with OVCAR-4 ovarian and in the experiment with RXF 393 renal was > 100 µM in each case. Besides, the TGI in the experiment on TK-10 renal, with UACC-257 melanoma, in the experiment with UACC-62 melanoma and in the experiment on UO-31 renal was > 100 µM throughout.
For `CCOC(=O)C1(C/C=C/CBr)Cc2ccccc2C1=O` (configuration not stated), the TGI in the experiment on ACHN renal was 7.19 µM; in the experiment with HT29 colon, 11.8 µM; in the experiment on MALME-3M melanoma it was 7.43 µM; in the experiment on NCI/ADR-RES ovarian, 5.02 µM; in the experiment with OVCAR-4 ovarian, 6.02 µM; in the experiment with RXF 393 renal it was 6.32 µM. Moreover, the TGI in the experiment with TK-10 renal was 9.15 µM; in the experiment on UACC-257 melanoma, 22.6 µM; in the experiment with UACC-62 melanoma, 5.44 µM; with UO-31 renal, 4.83 µM.
Take `COC(=O)C([C@H](NC1(c2ccccc2)c2ccccc2-c2ccccc21)C(=O)OC)N(NC(=O)OCc1ccccc1)C(=O)OCc1ccccc1` (mixture of isomers): the TGI in the experiment with ACHN renal, with HT29 colon, in the experiment on MALME-3M melanoma, in the experiment with NCI/ADR-RES ovarian, in the experiment on OVCAR-4 ovarian and in the experiment with RXF 393 renal was > 100 µM throughout. Also, the TGI in the experiment with TK-10 renal, in the experiment with UACC-257 melanoma, in the experiment with UACC-62 melanoma and in the experiment with UO-31 renal was > 100 µM in each case.
Turning to `Cc1cn2c(/C=N/N=C(N)N)c(-c3cccc([N+](=O)[O-])c3)nc2s1`, the TGI in the experiment with ACHN renal was 3.03 µM; in the experiment on HT29 colon, 1.86 µM; with MALME-3M melanoma, 3.94 µM; in the experiment with NCI/ADR-RES ovarian, > 100 µM; with OVCAR-4 ovarian, 1.07 µM; in the experiment on RXF 393 renal it was 2.5 µM. The TGI in the experiment with TK-10 renal worked out at 3.92 µM; in the experiment with UACC-257 melanoma, 4.22 µM; in the experiment with UACC-62 melanoma, 3.07 µM; with UO-31 renal it was 19.6 µM.
With `O=C1c2ccccc2-c2c1c1ccccc1c(=O)n2CCNCCNCCNCCn1c2c(c3ccccc3c1=O)C(=O)c1ccccc1-2`, the GI50 is 0.0536 µM with ACHN renal, 3.9 µM in the experiment with NCI/ADR-RES ovarian, 0.379 µM in the experiment with UACC-62 melanoma and 1.12 µM with UO-31 renal. The TGI in the experiment on ACHN renal was 0.555 µM; in the experiment on NCI/ADR-RES ovarian, > 54.9 µM; with UACC-62 melanoma, 1.54 µM; in the experiment with UO-31 renal it was 2.64 µM.
On to `C=C(C)C(=O)OC1C/C(CO)=C\C(O)C/C(C)=C/C2OC(=O)C(=C)C21` (configuration not stated), for which the TGI was 48.4 µM in the experiment on ACHN renal; 34.1 µM in the experiment on HT29 colon; 39 µM in the experiment with MALME-3M melanoma; 79.5 µM in the experiment with NCI-H226 lung; 63.4 µM in the experiment with OVCAR-4 ovarian; 41.2 µM with TK-10 renal. Also, the TGI in the experiment with UACC-62 melanoma is 39.1 µM; with UO-31 renal, > 100 µM.
`CCCCC#C[I+]c1ccccc1`: the TGI with ACHN renal came to 30.9 µM; with HT29 colon, 32 µM; with MALME-3M melanoma it was 28.2 µM; in the experiment on NCI-H226 lung, 30.7 µM; in the experiment with OVCAR-4 ovarian, 28.9 µM; in the experiment on RXF 393 renal it was 36.9 µM. For the same compound, the TGI in the experiment on TK-10 renal came to 28.6 µM; in the experiment on UACC-257 melanoma it was 30.8 µM; with UACC-62 melanoma, 33 µM; in the experiment with UO-31 renal it was 30 µM.
For the compound `CC1CCC(n2c3cnccc3c3cnc(Nc4ccc5c(n4)CCN(C(=O)CO)C5)nc32)CC1` (configuration not stated), the GI50 in the experiment on ACHN renal is 0.469 µM; with HT29 colon, 0.596 µM; in the experiment on UACC-257 melanoma, > 100 µM; with UO-31 renal it was 0.263 µM. Further, the TGI with ACHN renal, in the experiment on HT29 colon, with UACC-257 melanoma and with UO-31 renal was > 100 µM in each case.
`O=c1ccc(-c2ccccc2)n[nH]1`: the TGI with ACHN renal, with HT29 colon, in the experiment on MALME-3M melanoma, with NCI/ADR-RES ovarian, in the experiment on OVCAR-4 ovarian and with RXF 393 renal was > 100 µM each time. Also, the TGI with TK-10 renal, in the experiment with UACC-257 melanoma, in the experiment on UACC-62 melanoma and in the experiment with UO-31 renal was > 100 µM throughout.
Turning to `CC(C)CCS(=O)(=O)OCCCCOS(=O)(=O)CCC(C)C`, the TGI in the experiment with ACHN renal, with HT29 colon, with MALME-3M melanoma, in the experiment on NCI-H226 lung, in the experiment on RXF 393 renal and in the experiment with TK-10 renal was > 100 µM each time. Also, the TGI in the experiment with UACC-257 melanoma, in the experiment on UACC-62 melanoma and in the experiment with UO-31 renal was > 100 µM each time.
Take `ClCCN1CCC2(CC1)SSC1(CCN(CCCl)CC1)S2`: the TGI with ACHN renal is > 100 µM; with HT29 colon, > 100 µM; with MALME-3M melanoma, 73.6 µM; with NCI/ADR-RES ovarian, > 100 µM; in the experiment on OVCAR-4 ovarian, > 100 µM; in the experiment with TK-10 renal it was 95.5 µM. The TGI with UACC-257 melanoma is > 100 µM; in the experiment with UACC-62 melanoma, 71 µM; in the experiment with UO-31 renal, > 100 µM.
